Measurements: US6448249B1, “Substituted 1,2,4-triazolo[3,4-A]phthalazine derivatives as GABAα5 ligands” (Merck Sharp & Dohme Ltd., priority 1998, dated 2002)

Experiments:
[1] = receptor occupancy at the minimum effective dose; format: in vivo; conditions: Rattus norvegicus; at dose of 0.3 mg/kg
cognition = assay: rat water maze test (Morris); format: in vivo
Description: Cognition enhancement can be shown by testing the compound in the Morris watermaze as reported by McNamara and Skelton, Psychobiology, 21:101-108. The functional efficacy at the various receptor subtypes can be calculated using the method disclosed in WO-A-9625948.

[2] = target: T1, human GABAA receptors containing the α5 subunit (Homo sapiens, UniProt P18507+P31644); assay: [3H]-flumazenil (Ro 15-1788) displacement binding assay; conditions: α5β3γ2 stably expressed in Ltk− cells; read-out: Ki value for displacement of [3H]Ro 15-1788 from the α5 subunit of the human GABAA receptor
T1 construct: expressed in transfected cells; host or cells: Ltk- cells (mouse fibroblasts), stably expressing
T1 sequence (P31644 32-462): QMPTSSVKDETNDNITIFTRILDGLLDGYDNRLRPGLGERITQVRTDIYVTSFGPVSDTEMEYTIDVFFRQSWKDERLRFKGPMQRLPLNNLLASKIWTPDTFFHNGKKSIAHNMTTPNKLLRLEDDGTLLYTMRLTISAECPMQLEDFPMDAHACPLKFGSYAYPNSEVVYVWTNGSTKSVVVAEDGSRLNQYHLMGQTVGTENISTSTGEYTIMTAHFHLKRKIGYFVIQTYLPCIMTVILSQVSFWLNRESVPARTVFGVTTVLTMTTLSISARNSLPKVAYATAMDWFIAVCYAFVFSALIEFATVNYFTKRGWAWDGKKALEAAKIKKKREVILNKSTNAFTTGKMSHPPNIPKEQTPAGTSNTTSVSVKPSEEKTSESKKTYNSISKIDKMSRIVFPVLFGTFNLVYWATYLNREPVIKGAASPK
T1 sequence (P28472 26-473 partner): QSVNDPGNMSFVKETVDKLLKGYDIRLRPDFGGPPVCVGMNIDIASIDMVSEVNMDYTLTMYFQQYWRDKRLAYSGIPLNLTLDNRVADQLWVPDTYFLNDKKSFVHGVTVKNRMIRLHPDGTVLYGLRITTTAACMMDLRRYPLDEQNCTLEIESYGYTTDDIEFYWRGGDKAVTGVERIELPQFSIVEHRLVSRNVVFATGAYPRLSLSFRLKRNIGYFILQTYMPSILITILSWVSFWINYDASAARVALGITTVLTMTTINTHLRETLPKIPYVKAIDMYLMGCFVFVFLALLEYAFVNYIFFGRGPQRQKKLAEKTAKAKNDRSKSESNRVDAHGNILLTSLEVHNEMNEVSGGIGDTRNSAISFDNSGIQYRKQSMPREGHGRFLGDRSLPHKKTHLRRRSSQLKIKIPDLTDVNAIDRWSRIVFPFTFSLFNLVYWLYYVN
T1 sequence (P18507 40-467 limits assumed): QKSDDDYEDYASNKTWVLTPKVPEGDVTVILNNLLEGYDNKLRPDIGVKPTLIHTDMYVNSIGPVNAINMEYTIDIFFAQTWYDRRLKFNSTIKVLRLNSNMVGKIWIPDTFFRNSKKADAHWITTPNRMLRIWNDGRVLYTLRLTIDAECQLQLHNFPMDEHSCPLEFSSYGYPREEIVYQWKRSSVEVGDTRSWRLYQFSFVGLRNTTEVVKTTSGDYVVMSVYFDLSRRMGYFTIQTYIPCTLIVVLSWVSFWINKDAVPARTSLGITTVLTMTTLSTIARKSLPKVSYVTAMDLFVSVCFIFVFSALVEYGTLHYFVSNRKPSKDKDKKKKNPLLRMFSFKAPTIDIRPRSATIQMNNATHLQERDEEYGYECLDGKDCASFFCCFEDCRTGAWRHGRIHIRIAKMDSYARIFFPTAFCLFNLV
Method: Phosphate buffered saline (PBS).
Assay buffer: 10 mM KH2PO4, 100 mM KCl, pH 7.4 at room temperature.
[^3H]-Flumazenil (18 nM for α1β3γ2 cells; 18 nM for α2β3γ2 cells; 10 nM for α3β3γ2 cells; 10 nM for α5β3γ2 cells) in assay buffer.
Flunitrazepam 100 μM in assay buffer.
Cells resuspended in assay buffer (1 tray to 10 ml).
Supernatant is removed from cells. PBS (approximately 20 ml) is added. The cells are scraped and placed in a 50 ml centrifuge tube. The procedure is repeated with a further 10 ml of PBS to ensure that most of the cells are removed. The cells are pelleted by centrifuging for 20 min at 3000 rpm in a benchtop centrifuge, and then frozen if desired. The pellets are resuspended in 10 ml of buffer per tray (25 cm×25 cm) of cells.
Can be carried out in deep 96-well plates or in tubes. Each tube contains:
50 μl of [^3H]-flumazenil (final concentration for α1β3γ2: 1.8 nM; for α2β3γ2: 1.8 nM; for α3β3γ2: […]; for α5β3γ2: 1.0nM). […]
Assays are incubated for 1 hour at […], then filtered using either a Tomtec or Brandel cell harvester onto GF/B filter followed by 3×3 ml washes with ice cold assay buffer. Filters are dried and counted by liquid scintillation counting. […] Binding parameters are determined by non-linear least squares regression analysis, from which the inhibition constant Ki can be calculated for the test compound.

SMILES	receptor occupancy at 0.3 mg/kg [1]	cognition enhancement in the rat water maze test (cognition; demonstrated at 0.3 mg/kg and also at 3 mg/kg)	minimum effective dose for cognition enhancement (cognition; rat water maze)	Ki [2]	melting point
Cc1cc(-c2nnc3c4ccccc4c(OCc4cn(C)nn4)nn23)no1 [compound of the present invention, 3-(5-methylisoxazol-3-yl)-6-(1-methyl-1,2,3-triazol-4-yl)methyloxy-1,2,4-triazolo[3,4-a]phthalazine]	40%	enhance cognition	0.3 mg/kg	≤ 100 nM	
Cc1cc(-c2nnc3c4ccccc4c(OCc4cccc(Br)n4)nn23)no1 [Reference Example 2, 6-(6-Bromopyridin-2-yl)methyloxy-3-(5-methylisoxazol-3-yl)-1,2,4-triazolo[3,4-a]phthalazine]					247.5 to 249 °C
